# Reference: patent US20190216786A1, “USE OF 2-{4-[(4-{[1-CYCLOPROPYL-3-TETRAHYDRO-2H-PYRAN-4-yl)-1H-PYRAZOL-4yl]OXY} PYRIDINE-2-yl)AMINO]PYRIDIN-2-yl}PROPAN-2-OL IN THE TREATMENT OF CANCER” (Eli Lilly and Company, priority 2016, published 2019)
# What was measured:
# [1] = 3-month intermittent-dosing toxicology study in rats; type: in vivo
# From the text: (§1) Due to the cardiac effects observed with daily dosing in preclinical models, intermittent-dosing toxicology studies administering 2-{4-[(4-{[1-cyclopropyl-3-(tetrahydro-2H-pyran-4-yl)-1H-pyrazol-4-yl]oxy}pyridin-2-yl)amino]pyridin-2-yl}propan-2-ol 4-methylbenzenesulfonate for 3 months in dogs and rats were completed to support clinical dosing. The two dosing schedules evaluated were 2 weeks of daily dosing followed by 2 weeks of no dosing (2 weeks on/2 weeks off) or 3 weeks of daily dosing followed by 1 week of no-dosing (3 weeks on/1 week off). […] Margins of safety based on the NOAELs for the 3-month studies support the proposed clinical dose range of 10 to 100 mg in patients.
# [2] = in vivo; set-up: species or system dogs; settings: dog
# From the text: as §1
smiles,measurement,setting,value
CC(C)(O)c1cc(Nc2cc(Oc3cn(C4CC4)nc3C3CCOCC3)ccn2)ccn1 [2-{4-[(4-{[1-cyclopropyl-3-(tetrahydro-2H-pyran-4-yl)-1H-pyrazol-4-yl]oxy}pyridin-2-yl)amino]pyridin-2-yl}propan-2-ol 4-methylbenzenesulfonate],cardiac effects,"[1]; rat, 12 mg/kg, 3 cycles of the 3-week-on/1-week-off schedule",limited to aortic inflammation and degeneration in a single female animal
same,"compound-related, adverse effects","[1]; rats, 3 months, 2-week on/2-week-off dosing schedule","no compound-related, adverse effects detected"
same,NOAEL at 3 months,[2],7.5 mg/kg
same,adverse effects,[2],no adverse effects
